Laboratory results taken from patent US20100173914A1, “PHARMACEUTICALS, COMPOSITIONS AND METHODS OF MAKING AND USING THE SAME” (priority 2007, published 2010).

Key:
[1] = molecular target: T1, human adenosine A1 receptors (Homo sapiens, UniProt P30542); experiment: Adenosine receptor binding: binding affinities at hA1 receptors ([3H]DPCPX displacement); settings: displacement of [3H]DPCPX, membranes of CHO-K1 cells transfected with human A1
T1 construct: expressed in transfected cells; host or cells: CHO-K1
T1 sequence (P30542 1-326): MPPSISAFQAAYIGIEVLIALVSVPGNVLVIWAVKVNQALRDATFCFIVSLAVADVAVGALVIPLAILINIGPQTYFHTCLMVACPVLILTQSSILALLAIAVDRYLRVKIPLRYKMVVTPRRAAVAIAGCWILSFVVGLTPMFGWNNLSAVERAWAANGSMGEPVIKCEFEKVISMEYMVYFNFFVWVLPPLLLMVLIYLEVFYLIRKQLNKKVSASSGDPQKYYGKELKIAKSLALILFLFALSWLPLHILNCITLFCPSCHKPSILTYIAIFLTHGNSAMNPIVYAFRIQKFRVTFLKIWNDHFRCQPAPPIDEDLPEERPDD
Description: Adenosine Receptor Binding: Binding Affinities at hA1 Receptors
The compounds were examined in an assay measuring in vitro binding to human adenosine A1 receptors by determining the displacement of the adenosine A1 receptor selective radioligand 8-Cyclopentyl-1,3-dipropylxanthine ([^3H]DPCPX) using standard techniques. See, for example, Lohse M J, et al., (1987), 8-Cyclopentyl-1,3-dipropylxanthine (DPCPX)—a selective high affinity antagonist radioligand for A1 adenosine receptors. Naunyn Schmiedebergs Arch Pharmacol., 336(2):204-10, which is incorporated by reference in its entirety.
Frozen CHO-K1 cells (transfected with a human adenosine A1 recepter expression vector) were homogenized in 130 mL of 50 mM Tris HCl buffer (pH 7.5) containing 10 mM MgCl2, and 0.1 IU/mL adenosine deaminase per pellet using a Ultra-Turrax homogeniser. The resultant homogenate was kept for immediate use in the binding. Binding assays were performed in a total volume of 250 μL, containing [^3H]-DPCPX (3.0 nM), membranes and additional drugs. Total binding was determined using drug dilution buffer (50 mM Tris-HCl pH:7.5, 10 mM MgCl2, 5% DMSO). Non-specific binding was determined using 300 μM N6-cyclohexyladenosine (CHA). Following incubation for 90 minutes at 21° C., assays were terminated by rapid filtration with GF/B filters (presoaked in 0.1% (w/v) polyethylenimine) using a Canberra Packard filtermate 196, washed 3 times with ice-cold Tris-HCl (pH 7.4). Filters were left to dry overnight, and Microscint-0 scintillation fluid was then added to the filters. The filters were then left for at least 2 hours before the radioactivity was assessed using a Canberra Packard TopCount microplate scintillation counter.
To determine the free ligand concentration, three vials were counted with 25 μL of [^3H]DPCPX containing 4 mL of Ultima-Gold MV scintillant on a Beckman LS6500 multi-purpose scintillation counter.
(§1) Data was analysed using a 4 parameter logistical equation and non-linear regression which yields affinity constants (pIC50), and slope parameters:
where E is the quantity of binding and [A] is the competitor concentration. The K, is then determined using the Cheng-Prusoff equation: […]

[2] = molecular target: T2, human adenosine A2A receptors (Homo sapiens, UniProt P29274); experiment: Adenosine receptor binding: binding affinities at hA2A receptors ([3H]CGS-21680 displacement); settings: for Ki: displacement of [3H]CGS-21680, HEK-293 cell membranes; for A2A/A1 selectivity ratio (Ki A2A/Ki A1): ratio of measured Ki values at hA2A and hA1
T2 construct: host or cells: HEK-293
Description: Adenosine Receptor Binding: Binding Affinities at hA2A Receptors
The compounds were examined in an assay measuring in vitro binding to human adenosine A2A receptors by determining the displacement of the adenosine A2A receptor selective radioligand 4-[2-[[6-Amino-9-(N-ethyl-β-D-ribofuranuronamidosyl)-9H-purin-2-yl]amino]ethyl]benzenepropanoic acid hydrochloride ([^3H]CGS-21680) using standard techniques. See, for example, Jarvis et al., J Pharmacol Exp Ther., 251(3):888-93, which is incorporated by reference in its entirety.
Frozen HEK-293 cells were homogenized in 65 mL of 50 mM Tris HCl buffer (pH 7.5) containing 10 mM MgCl2, and 0.1 IU/mL adenosine deaminase per pellet using a Ultra-Turrax homogenizer. The resultant homogenate was kept for immediate use in the binding assay.
Binding assays were performed in a total volume of 250 μL, containing [^3H]-CGS21680 (20.0 nM), membranes and additional drugs. Total binding was determined using drug dilution buffer (50 mM Tris-HCl pH 7.5, 10 mM MgCl2, 5% DMSO). Non-specific binding was determined using 300 μM CHA. Following incubation for 90 minutes at 21° C., assays were terminated by rapid filtration with GF/B filters (presoaked in 0.1% (w/v) polyethylenimine) using a Canberra Packard filtermate 196, washed 3 times with ice-cold Tris-HCl (pH 7.4). Filters were left to dry overnight, and Microscint-0 scintillation fluid was then added to the filters. The filters were then left for at least 2 hours before the radioactivity was assessed using a Canberra Packard TopCount microplate scintillation counter.
To determine the free ligand concentration, three vials were counted with 25 μL of [^3H]CGS21680 containing 4 mL of Ultima-Gold MV scintillant on a Beckman LS6500 multi-purpose scintillation counter.
as §1
where E is the quantity of binding and [A] is the competitor concentration. The Ki is then determined using the Cheng-Prusoff equation: […]

T2 sequence (P29274 whole entry): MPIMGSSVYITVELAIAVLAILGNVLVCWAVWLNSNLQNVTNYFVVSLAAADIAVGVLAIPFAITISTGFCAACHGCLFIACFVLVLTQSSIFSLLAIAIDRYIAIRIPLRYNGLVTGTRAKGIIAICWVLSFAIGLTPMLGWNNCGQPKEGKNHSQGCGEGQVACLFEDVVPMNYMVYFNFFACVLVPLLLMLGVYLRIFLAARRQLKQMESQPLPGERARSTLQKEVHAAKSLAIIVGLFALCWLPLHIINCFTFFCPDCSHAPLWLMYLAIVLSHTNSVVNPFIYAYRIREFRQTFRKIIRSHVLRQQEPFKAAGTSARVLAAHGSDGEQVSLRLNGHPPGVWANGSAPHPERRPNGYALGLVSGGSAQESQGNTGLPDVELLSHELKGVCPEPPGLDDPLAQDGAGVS

SMILES	Ki [1] [µM]	Ki [2] [µM]	A2A/A1 selectivity ratio (Ki A2A/Ki A1) [2]
Nc1nc(-c2ccco2)c2nnn(Cc3cccc(NS(=O)(=O)O)c3)c2n1 [3-[(5-amino-7-(furan-2-yl)-3H-[1,2,3]triazolo[4,5-d]pyrimidin-3-yl)methyl]-phenylsulfamic acid]	1 to 10	0.1 to 1	H (more than 20)
Nc1nc(-c2cccs2)c2nnn(Cc3cccc(NS(=O)(=O)O)c3)c2n1 [3-[(5-amino-7-(thiophen-2-yl)-3H-[1,2,3]triazolo[4,5-d]pyrimidin-3-yl)methyl]-phenylsulfamic acid]	1 to 10	0.1 to 1	G (10 to 20)
Nc1nc(-c2ccccc2)c2nnn(Cc3cccc(NS(=O)(=O)O)c3)c2n1 [3-[(5-amino-7-phenyl-3H-[1,2,3]triazolo[4,5-d]pyrimidin-3-yl)methyl]-phenylsulfamic acid]	1 to 10	≤ 0.1	G (10 to 20)
COc1cc(Cn2nnc3c(-c4ccccc4OC)nc(N)nc32)ccc1NS(=O)(=O)O [4-[(5-amino-7-(2-methoxyphenyl)-3H-[1,2,3]triazolo[4,5-d]pyrimidin-3-yl)methyl]-2-methoxyphenylsulfamic acid]	> 10	> 10	E (less than 5)
COc1ccccc1-c1nc(N)nc2c1nnn2Cc1ccc(NS(=O)(=O)O)c(C)c1 [4-[(5-amino-7-(2-methoxyphenyl)-3H-[1,2,3]triazolo[4,5-d]pyrimidin-3-yl)methyl]-2-methylphenylsulfamic acid]	> 10	1 to 10	E (less than 5)
COc1cc(NS(=O)(=O)O)ccc1Cn1nnc2c(-c3ccccc3OC)nc(N)nc21 [4-[(5-amino-7-(2-methoxyphenyl)-3H-[1,2,3]triazolo[4,5-d]pyrimidin-3-yl)methyl]-3-methoxyphenylsulfamic acid]	> 10	1 to 10	E (less than 5)
COc1ccccc1-c1nc(N)nc2c1nnn2Cc1ccc(NS(=O)(=O)O)cc1 [4-[(5-amino-7-(2-methoxyphenyl)-3H-[1,2,3]triazolo[4,5-d]pyrimidin-3-yl)methyl]phenylsulfamic acid]	> 10	1 to 10	E (less than 5)
Cc1ccc(-c2nc(N)nc3c2nnn3Cc2ccc(NS(=O)(=O)O)cc2)o1 [4-[(5-amino-7-(5-methylfuran-2-yl)-3H-[1,2,3]triazolo[4,5-d]pyrimidin-3-yl)methyl]phenylsulfamic acid]	1 to 10	≤ 0.1	H (more than 20)
COc1cc(Cn2nnc3c(-c4ccco4)nc(N)nc32)ccc1NS(=O)(=O)O [4-[(5-amino-7-(furan-2-yl)-3H-[1,2,3]triazolo[4,5-d]pyrimidin-3-yl)methyl]-2-methoxyphenylsulfamic acid]	> 10	1 to 10	G (10 to 20)
COc1cc(NS(=O)(=O)O)ccc1Cn1nnc2c(-c3ccco3)nc(N)nc21 [4-[(5-amino-7-(furan-2-yl)-3H-[1,2,3]triazolo[4,5-d]pyrimidin-3-yl)methyl]-3-methoxyphenylsulfamic acid]	> 10	0.1 to 1	G (10 to 20)
Nc1nc(-c2ccco2)c2nnn(Cc3ccc(NS(=O)(=O)O)cc3)c2n1 [4-[(5-amino-7-(furan-2-yl)-3H-[1,2,3]triazolo[4,5-d]pyrimidin-3-yl)methyl]phenylsulfamic acid]	1 to 10	≤ 0.1	H (more than 20)
Nc1nc(-c2ccccc2)c2nnn(Cc3ccc(NS(=O)(=O)O)cc3)c2n1 [4-[(5-amino-7-(phenyl,2,3]triazolo[4,5-d]pyrimidin-3-yl)methyl]phenylsulfamic acid]	1 to 10	0.1 to 1	G (10 to 20)
COc1cc(Cn2nnc3c(-c4cccs4)nc(N)nc32)ccc1NS(=O)(=O)O [4-[(5-amino-7-(thiophen-2-yl)-3H-[1,2,3]triazolo[4,5-d]pyrimidin-3-yl)methyl]-2-methoxyphenylsulfamic acid]	1 to 10	0.1 to 1	H (more than 20)
COc1cc(NS(=O)(=O)O)ccc1Cn1nnc2c(-c3cccs3)nc(N)nc21 [4-[(5-amino-7-(thiophen-2-yl)-3H-[1,2,3]triazolo[4,5-d]pyrimidin-3-yl)methyl]-3-methoxyphenylsulfamic acid]	> 10	1 to 10	F (5 to 10)

Results, then the compound that gave them:

Ki [1] [µM]	Ki [2] [µM]	A2A/A1 selectivity ratio (Ki A2A/Ki A1) [2]	SMILES
1 to 10	0.1 to 1	H (more than 20)	COc1cc(NS(=O)(=O)O)ccc1Cn1nnc2c(-c3ccc(C)o3)nc(N)nc21
1 to 10	1 to 10	E (less than 5)	COc1ccccc1-c1nc(N)nc2c1nnn2Cc1cccc(NS(=O)(=O)O)c1 [3-[(5-amino-7-(2-methoxyphenyl)-3H-[1,2,3]triazolo[4,5-d]pyrimidin-3-yl)methyl]-phenylsulfamic acid]
0.1 to 1	≤ 0.1	H (more than 20)	Cc1ccc(-c2nc(N)nc3c2nnn3Cc2cccc(NS(=O)(=O)O)c2)o1 [3-[(5-amino-7-(5-methylfuran-2-yl)-3H-[1,2,3]triazolo[4,5-d]pyrimidin-3-yl)methyl]phenylsulfamic acid]
0.1 to 1	≤ 0.1	H (more than 20)	COc1cc(Cn2nnc3c(-c4ccc(C)o4)nc(N)nc32)ccc1NS(=O)(=O)O [4-[(5-amino-7-(5-methylfuran-2-yl)-3H-[1,2,3]triazolo[4,5-d]pyrimidin-3-yl)methyl]-2-methoxyphenylsulfamic acid]
0.1 to 1	≤ 0.1	H (more than 20)	Cc1ccc(-c2nc(N)nc3c2nnn3Cc2ccc(NS(=O)(=O)O)c(C)c2)o1 [4-[(5-amino-7-(5-methylfuran-2-yl)-3H-[1,2,3]triazolo[4,5-d]pyrimidin-3-yl)methyl]-2-methylphenylsulfamic acid]
0.1 to 1	≤ 0.1	H (more than 20)	Cc1cc(Cn2nnc3c(-c4ccco4)nc(N)nc32)ccc1NS(=O)(=O)O [4-[(5-amino-7-(furan-2-yl)-3H-[1,2,3]triazolo[4,5-d]pyrimidin-3-yl)methyl]-2-methylphenylsulfamic acid]
0.1 to 1	≤ 0.1	H (more than 20)	Cc1cc(Cn2nnc3c(-c4cccs4)nc(N)nc32)ccc1NS(=O)(=O)O [4-[(5-amino-7-(thiophen-2-yl)-3H-[1,2,3]triazolo[4,5-d]pyrimidin-3-yl)methyl]-2-methylphenylsulfamic acid]
